Reference: patent EP0450660B1, “Anti-atherosclerotic diaryl compound” (THE WELLCOME FOUNDATION LIMITED, priority 1988, dated 1990)

Tests used:
isolated rat liver cells = experiment: In vitro cytotoxicity: effects on metabolic competence of isolated rat liver cells; assay type: cell-based
Method: The cytotoxicity of the compound of the invention was investigated in vitro by studying its effects on the metabolic competence of isolated rat liver cells. […] A 15% decrease in ATP levels was observed after 90 minutes at a concentration of 100µM.

ACAT = target: T1, ACAT (Homo sapiens, UniProt P35610); experiment: In vitro inhibition of ACAT (radiometric, [14C]oleoyl CoA substrate, microsomal protein); assay type: biochemical; settings: enzyme derived from human embryo 407 intestinal epithelial cell line, 37°C, pH 7.0, 4 minutes, read-out: IC₅₀ for ACAT inhibition
T1 construct: Microsomal protein is therefore used as the source of both ACAT and cholesterol; endogenous in cells; host or cells: human embryo 407 intestinal epithelial cell line (microsomal fraction)
T1 sequence (P35610 1-550): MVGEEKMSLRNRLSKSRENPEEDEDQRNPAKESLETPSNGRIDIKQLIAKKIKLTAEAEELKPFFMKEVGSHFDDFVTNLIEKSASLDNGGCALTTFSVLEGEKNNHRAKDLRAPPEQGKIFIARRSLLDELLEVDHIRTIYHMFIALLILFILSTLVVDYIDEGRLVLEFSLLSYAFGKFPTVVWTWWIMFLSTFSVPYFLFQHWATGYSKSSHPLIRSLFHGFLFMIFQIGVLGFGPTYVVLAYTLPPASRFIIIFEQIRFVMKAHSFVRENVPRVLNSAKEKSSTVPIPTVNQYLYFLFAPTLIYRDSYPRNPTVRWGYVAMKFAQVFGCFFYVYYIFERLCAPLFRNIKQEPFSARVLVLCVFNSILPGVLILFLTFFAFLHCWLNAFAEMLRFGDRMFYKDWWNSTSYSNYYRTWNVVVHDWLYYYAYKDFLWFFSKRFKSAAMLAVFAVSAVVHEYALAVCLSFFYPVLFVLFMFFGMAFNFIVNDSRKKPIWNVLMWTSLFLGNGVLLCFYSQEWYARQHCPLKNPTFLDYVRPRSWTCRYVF
Method: In vitro inhibition of ACAT
The in vitro esterification of cholesterol in the presence of ACAT and the test compound was assayed radiometrically using [¹⁴C]oleoyl CoA as substrate: [¹⁴C]oleoyl CoA + cholesterol → [¹⁴C]oleoyl cholesterol + CoASH [formula]
The enzyme is membrane-associated in vivo. Microsomal protein is therefore used as the source of both ACAT and cholesterol. The compound of the invention was tested against enzyme derived from human embryo 407 intestinal epithelial cell line.
[¹⁴C]Oleoyl CoA was incubated with microsomal protein at 37°C, pH 7.0, in the presence of various concentrations of the test compound. After 4 minutes, the reaction was stopped by the addition of ice-cold chloroform/methanol containing a known amount of [³H]oleoyl cholesterol to compensate for the loss of any [¹⁴C] product. A known volume of the resulting lower phase, which contains lipidic material from the reaction, was dried, redissolved in hexane containing unlabelled oleoyl cholesterol (TLC marker) and run on a quantitative TLC plate (silica gel). The oleoyl cholesterol spot was visualised (iodine vapour), removed from the TLC plate and its radioactivity measured by scintillation counting.
A plot of ACAT inhibitory activity vs concentration was prepared for the test compound and the corresponding IC₅₀ determined.

IC50 (ACAT): 22 nM
SMILES: CCCCCCCNC(=O)Nc1c(F)cc(F)cc1CCc1ccc(CC(C)(C)C)cc1 [compound of the invention, 1-[2,4-difluoro-6-{2-[4-(2,2-dimethylpropyl)phenyl]ethyl}phenyl]-3-heptylurea]
decrease in ATP levels (isolated rat liver cells; after 90 minutes at a concentration of 100µM): 15%
effect on gluconeogenesis (isolated rat liver cells; concentrations of up to 100µM): No effect
